In ChEMBL document CHEMBL6109078, “Pyrylium derivatives as outer membrane permeabilizers against MDR gram-negative bacteria via multi-target mode of action” (Eur J Med Chem, 2025):
Calls of active or inactive are those of the source. The rule behind the calls is not given here.

Columns and labels:
[1] = test system: Escherichia coli; experiment: Synergistic antibacterial activity against Escherichia coli ATCC 25922 assessed as inhibition of bacterial growth by measuring polymyxin B MIC by checkerboard assay; format: functional
[2] = test system: Acinetobacter baumannii; experiment: Synergistic antibacterial activity against Acinetobacter baumannii ATCC 19606 assessed as inhibition of bacterial growth by measuring polymyxin B MIC by checkerboard assay; format: functional
[3] = test system: Acinetobacter baumannii; experiment: Synergistic antibacterial activity against multi-drug resistant Acinetobacter baumannii clinical isolate 1 assessed as inhibition of bacterial growth by measuring polymyxin B MIC by checkerboard assay; format: functional
[4] = test system: Escherichia coli; experiment: Antibacterial activity against Escherichia coli CG-4 expressing MCR-1 and NDM-1 assessed as inhibition of bacterial growth by CLSI protocol based method; format: functional
[5] = test system: Escherichia coli; experiment: Antibacterial activity against multi-drug resistant Escherichia coli clinical isolate 1 assessed as inhibition of bacterial growth by CLSI protocol based method; format: functional
[6] = test system: Escherichia coli; experiment: Synergistic antibacterial activity against Escherichia coli CG-4 expressing MCR-1 and NDM-1 assessed as fractional inhibitory concentration index in presence of gentamycin by checkerboard assay; format: functional
[7] = test system: Acinetobacter baumannii; experiment: Synergistic antibacterial activity against multi-drug resistant Acinetobacter baumannii clinical isolate 5 assessed as fractional inhibitory concentration index in presence of amikacin by checkerboard assay; format: functional
[8] = test system: Acinetobacter baumannii; experiment: Synergistic antibacterial activity against multi-drug resistant Acinetobacter baumannii clinical isolate 43 assessed as fractional inhibitory concentration index in presence of amikacin by checkerboard assay; format: functional
[9] = test system: Acinetobacter baumannii; experiment: Synergistic antibacterial activity against multi-drug resistant Acinetobacter baumannii clinical isolate 14 assessed as inhibition of bacterial growth by measuring polymyxin B MIC by checkerboard assay; format: functional
[10] = test system: Acinetobacter baumannii; experiment: Antibacterial activity against Acinetobacter baumannii ATCC 19606 assessed as inhibition of bacterial growth by CLSI protocol based method; format: functional
[11] = test system: Acinetobacter baumannii; experiment: Antibacterial activity against multi-drug resistant Acinetobacter baumannii clinical isolate 43 assessed as inhibition of bacterial growth by CLSI protocol based method; format: functional
[12] = test system: Escherichia coli; experiment: Synergistic antibacterial activity against Escherichia coli ATCC 35218 assessed as inhibition of bacterial growth in presence of polymyxin B by checkerboard assay; format: functional
[13] = test system: Acinetobacter baumannii; experiment: Synergistic antibacterial activity against multi-drug resistant Acinetobacter baumannii clinical isolate 43 assessed as fractional inhibitory concentration index in presence of polymyxin B by checkerboard assay; format: functional
[14] = test system: Acinetobacter baumannii; experiment: Antibacterial activity against Acinetobacter baumannii ATCC 19606 assessed as inhibition of bacterial growth by measuring decrease in bacterial count at 6.25 to 50 microg/ml measured after 12 hrs by time-kill kinetics analysis; format: functional; details: dose 6.25-50 µg/ml
[15] = test system: Acinetobacter baumannii; experiment: Synergistic antibacterial activity against multi-drug resistant Acinetobacter baumannii clinical isolate 14 assessed as fractional inhibitory concentration index in presence of gentamycin by checkerboard assay; format: functional
[16] = test system: Acinetobacter baumannii; experiment: Antibacterial activity against multi-drug resistant Acinetobacter baumannii clinical isolate 1 assessed as inhibition of bacterial growth by CLSI protocol based method; format: functional
[17] = test system: Acinetobacter baumannii; experiment: Antibacterial activity against multi-drug resistant Acinetobacter baumannii clinical isolate 2 assessed as inhibition of bacterial growth by CLSI protocol based method; format: functional
[18] = test system: Escherichia coli; experiment: Synergistic antibacterial activity against Escherichia coli ATCC 25922 assessed as fractional inhibitory concentration index in presence of gentamycin by checkerboard assay; format: functional
[19] = test system: Acinetobacter baumannii; experiment: Antibacterial activity against multi-drug resistant Acinetobacter baumannii clinical isolate 14 assessed as inhibition of bacterial growth by CLSI protocol based method; format: functional
[20] = test system: Escherichia coli; experiment: Synergistic antibacterial activity against Escherichia coli ATCC 35218 assessed as fractional inhibitory concentration index in presence of amikacin by checkerboard assay; format: functional
[21] = test system: Escherichia coli; experiment: Synergistic antibacterial activity against Escherichia coli ATCC 35218 assessed as fractional inhibitory concentration index in presence of gentamycin by checkerboard assay; format: functional
[22] = test system: Escherichia coli; experiment: Synergistic antibacterial activity against multi-drug resistant Escherichia coli clinical isolate 1 assessed as inhibition of bacterial growth by measuring polymyxin B MIC by checkerboard assay; format: functional
[23] = test system: Acinetobacter baumannii; experiment: Synergistic antibacterial activity against multi-drug resistant Acinetobacter baumannii clinical isolate 1 assessed as fractional inhibitory concentration index in presence of polymyxin B by checkerboard assay; format: functional
[24] = test system: Acinetobacter baumannii; experiment: Synergistic antibacterial activity against multi-drug resistant Acinetobacter baumannii clinical isolate 43 assessed as inhibition of bacterial growth in presence of polymyxin B by checkerboard assay; format: functional
[25] = test system: Acinetobacter baumannii; experiment: Synergistic antibacterial activity against Acinetobacter baumannii ATCC 19606 assessed as fractional inhibitory concentration index in presence of gentamycin by checkerboard assay; format: functional
[26] = test system: Acinetobacter baumannii; experiment: Synergistic antibacterial activity against multi-drug resistant Acinetobacter baumannii clinical isolate 5 assessed as inhibition of bacterial growth in presence of polymyxin B by checkerboard assay; format: functional
[27] = test system: Cell membrane; experiment: Induction of outer membrane damage in Escherichia coli ATCC 25922 assessed as loose outer membrane with decrease in electron cloud density at 12.5 microg/ml incubated for 1 hrs by TEM analysis; details: dose 12.5 µg/ml
[28] = test system: Acinetobacter baumannii; experiment: Synergistic antibacterial activity against multi-drug resistant Acinetobacter baumannii clinical isolate 14 assessed as fractional inhibitory concentration index in presence of polymyxin B by checkerboard assay; format: functional
[29] = test system: Escherichia coli; experiment: Antibacterial activity against Escherichia coli ATCC 25922 assessed as inhibition of bacterial growth by measuring fold increase in MIC incubated for 16 to 18 hrs in presence of Mg2+; format: functional; details: time 16-18 hrs
[30] = test system: Cell membrane; experiment: Induction of outer membrane damage in Escherichia coli ATCC 25922 assessed as accumulation of membrane-like structures near inner membrane at 12.5 microg/ml incubated for 1 hrs by TEM analysis; details: dose 12.5 µg/ml
[31] = test system: Cell membrane; experiment: Disruption of outer membrane integrity in Escherichia coli ATCC 25922 assessed as increase in EtBr uptake by fluorescence plate reader analysis
[32] = test system: Escherichia coli; experiment: Antibacterial activity against Escherichia coli ATCC 25922 assessed as inhibition of bacterial growth by measuring fold change in MIC incubated for 16 to 18 hrs in presence of LPS; format: functional; details: time 16-18 hrs
[33] = test system: Cell membrane; experiment: Induction of outer membrane damage in Escherichia coli ATCC 25922 assessed as local damage at 12.5 microg/ml incubated for 1 hrs by TEM analysis; details: dose 12.5 µg/ml
[34] = test system: Escherichia coli; experiment: Antibacterial activity against Escherichia coli ATCC 25922 infected in Galleria mellonella larvae assessed as survival rate at 50 microg/ml measured 96 hrs post-inoculation relative to control; format: functional
[35] = test system: Escherichia coli; experiment: Induction of morphological changes in Escherichia coli ATCC 25922 assessed as appearance of filamentous bacterial cells at 6.25 microg/ml incubated for 1 hrs by optical microscopic analysis; format: functional, organism-based; details: dose 6.25 µg/ml
[36] = test system: Cell membrane; experiment: Induction of outer membrane damage in Escherichia coli ATCC 25922 assessed as local fractures at 12.5 microg/ml incubated for 1 hrs by TEM analysis; details: dose 12.5 µg/ml
[37] = test system: Escherichia coli; experiment: Induction of morphological changes in Escherichia coli ATCC 25922 assessed as appearance of longer bacterial cells at 6.25 microg/ml incubated for 1 hrs by optical microscopic analysis; format: functional, organism-based; details: dose 6.25 µg/ml
[38] = Binding affinity to His-tagged LptC (unknown origin) extracted from Escherichia coli BL21 (DE3) cells assessed as dissociation constant by BLI analysis; set-up: species or system Bacteria
[39] = test system: Escherichia coli; experiment: Antibacterial activity against Escherichia coli ATCC 25922 assessed as bacterial killing at 100 microg/ml measured within 4 to 12 hrs by time-kill kinetics analysis; format: functional; details: dose 100 µg/ml; time 4-12 hrs

| Compound | MIC [1] | MIC [2] [ng/mL] | MIC [3] [µg/mL] | MIC [4] [µg/mL] | MIC [5] [µg/mL] | fractional inhibitory concentration index (FICI) [6] | fractional inhibitory concentration index (FICI) [7] | fractional inhibitory concentration index (FICI) [8] | MIC [9] [µg/mL] | MIC [10] [µg/mL] | MIC [11] [µg/mL] | MIC [12] [µg/mL] | fractional inhibitory concentration index (FICI) [13] | Activity [14] [log10CFU/ml] | fractional inhibitory concentration index (FICI) [15] | MIC [16] [µg/mL] | MIC [17] [µg/mL] | fractional inhibitory concentration index (FICI) [18] | MIC [19] [µg/mL] | fractional inhibitory concentration index (FICI) [20] | other results |
| --- | --- | --- | --- | --- | --- | --- | --- | --- | --- | --- | --- | --- | --- | --- | --- | --- | --- | --- | --- | --- | --- |
| CN1CCOc2cc(/C=C/c3cc(C(C)(C)C)[o+]c(C(C)(C)C)c3)ccc21.O=S(=O)([O-])C(F)(F)F | 7.8 10^-4 ug/ml | 6 | 0.05 | 25 | ≥ 100 | 0.125 | 0.125 | 0.125 | 0.012 | 50 | 100 | 6.25 | <0.25 | <6 | 0.125 | 100 | 100 | 0.125 | 100 | 0.125 | fractional inhibitory concentration index (FICI) [21]: 0.125; MIC [22]: 0.2 µg/mL; fractional inhibitory concentration index (FICI) [23]: <0.126; MIC [24]: 25 µg/mL; fractional inhibitory concentration index (FICI) [25]: 0.125; MIC [26]: 6.25 µg/mL |
| CCN(CC)c1ccc(/C=C/c2cc(C(C)(C)C)[o+]c(C(C)(C)C)c2)cc1.O=S(=O)([O-])C(F)(F)F | 7.8 10^-4 ug/ml | 6 | 0.2 | 12.5 | ≥ 100 | 0.125 | 0.125 | 0.125 | 0.006 | 12.5 | 12.5 | 1.56 | 0.5 | <6 | 0.125 | 25 | 6.25 | 0.125 | 12.5 | 0.125 | Activity [27]: Active; fractional inhibitory concentration index (FICI) [28]: 0.141; fold change (FC) [29]: 2; Activity [30]: Active; Activity [31]: Dose-dependent-effect; fold change (FC) [32]: 2; Activity [33]: Active; survival at 50 µg/mL [34]: 40%; Activity [35]: Active; Activity [36]: Active; Activity [37]: Active; Kd [38]: 0.49 µM; fractional inhibitory concentration index (FICI) [21]: 0.125; Activity [39]: 100%; MIC [22]: 0.2 µg/mL; fractional inhibitory concentration index (FICI) [23]: <0.064; MIC [24]: 6.25 µg/mL; fractional inhibitory concentration index (FICI) [25]: 0.125; MIC [26]: 1.56 µg/mL |
| CC(C)(C)c1cc(/C=C/c2ccc(N3CCCC3)cc2)cc(C(C)(C)C)[o+]1.O=S(=O)([O-])C(F)(F)F | 31.25 10^-4 ug/ml | 2 | 1.56 | 6.25 | ≥ 100 | 0.125 | 0.125 | 0.125 | 0.024 | 12.5 | 12.5 | 3.13 | 0.5 | <6 | 0.125 | 12.5 | 6.25 | 0.125 | 6.25 | 0.125 | Activity [27]: Active; fractional inhibitory concentration index (FICI) [28]: 0.313; fold change (FC) [29]: 2; Activity [30]: Active; Activity [31]: Dose-dependent-effect; fold change (FC) [32]: 2; Activity [33]: Active; survival at 50 µg/mL [34]: 40%; Activity [35]: Active; Activity [36]: Active; Activity [37]: Active; Kd [38]: 63.7 µM; fractional inhibitory concentration index (FICI) [21]: 0.125; Activity [39]: 100%; MIC [22]: 0.39 µg/mL; fractional inhibitory concentration index (FICI) [23]: <0.266; MIC [24]: 6.25 µg/mL; fractional inhibitory concentration index (FICI) [25]: 0.125; MIC [26]: 1.56 µg/mL |
